This is an account of results in ChEMBL document CHEMBL1201862, “PubChem BioAssay data set” (2004).

Test [1] addresses T1, Heat shock factor protein 1 (Mus musculus, UniProt P38532).
T1 sequence (P38532 whole entry): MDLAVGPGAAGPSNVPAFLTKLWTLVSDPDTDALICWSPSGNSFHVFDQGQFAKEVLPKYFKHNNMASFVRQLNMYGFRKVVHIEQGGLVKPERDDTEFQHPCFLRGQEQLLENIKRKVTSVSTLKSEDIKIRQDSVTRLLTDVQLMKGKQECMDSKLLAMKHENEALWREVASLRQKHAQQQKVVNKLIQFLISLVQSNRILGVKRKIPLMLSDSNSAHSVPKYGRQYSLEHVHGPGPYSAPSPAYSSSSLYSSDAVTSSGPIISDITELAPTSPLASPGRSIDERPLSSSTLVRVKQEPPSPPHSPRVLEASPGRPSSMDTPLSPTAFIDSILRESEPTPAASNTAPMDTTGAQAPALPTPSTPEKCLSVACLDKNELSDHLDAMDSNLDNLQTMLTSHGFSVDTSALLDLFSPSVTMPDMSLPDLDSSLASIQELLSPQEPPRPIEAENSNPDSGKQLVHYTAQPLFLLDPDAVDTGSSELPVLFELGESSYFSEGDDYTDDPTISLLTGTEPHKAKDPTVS
The test can be described thus: HSF1 potentiators in luciferase reporter cells, confirmation, cell-based, NIH3T3, luminescence, dose retest (AID 435004).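 Also: stress induced by proteasome inhibitor MG132 added 30 min after compound; luciferase reporter driven by HSF1 response element in NIH3T3 cells; actives raise luminescence as potentiators of the MG132 stress response.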 It is filed as functional. On the technique in general: Reporter assays use an easily measured gene product as a stand-in for the process of interest.

Test [2] is described as follows: Luminescence Cell-Based Dose Retest to Confirm Inhibitors of Cancer Stem Cells. [Related pubchem assays (depositor defined):AID2717, AID2721]. It counts as functional. The following applies: Homo sapiens.
The nature of test [3]: C. albicans growth with fluconazole, confirmation, fluorescence, retest (AID 2467). It counts as functional, cell-based.
A short description of test [4]: NIH-3T3 fibroblast cytotoxicity, dose response, cytotoxicity control, cell-based, fluorescence, Alamar Blue, secondary assay (AID 2327).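 Also: NIH-3T3 mouse fibroblasts cultured with fluconazole at 8 µg/mL.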 It counts as functional. (Alamar Blue is a resazurin reagent that responds to reducing activity.)
The nature of test [5]: HEp-2 cell cytotoxicity, dose response, cytotoxicity control for RSV inhibitor project, HTS (AID 2410). It is filed as functional. As to conditions: human respiratory syncytial virus.
The nature of test [6]: control 3'UTR Renilla luciferase suppression, dose response, counter-screen for Shn3 inhibitor project, cell-based, Clone20-Shn3RL, cherry-picked (AID 624133). It is filed as functional. A general note: A counterscreen serves to expose hits that act by an unwanted route or on another target.
A short description of test [7]: HepG2 cell cytotoxicity, dose response, cytotoxicity control for Shn3 inhibitor project, CellTiter-Glo, cherry-picked (AID 624134). It counts as functional, cell-based.
A short description of test [8]: Shn3 3'UTR reporter inhibitors, dose response, cell-based, Clone20 osteoblasts, firefly luciferase, cherry-picked (AID 624132).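 Also: firefly luciferase luminescence from reporter carrying the Shn3 3'UTR in osteoblasts.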 It is filed as functional.
The target in test [9] is Luciferin 4-monooxygenase (Photinus pyralis, UniProt P08659). The test can be described thus: firefly luciferase enzyme inhibitors, dose response, biochemical, luminescence (AID 1891).
A short description of test [10]: Luminescence Cell-Based Dose Confirmation HTS to Identify Inhibitors of Platelet Dense Granule Release. [Related pubchem assays: 1663 (Primary HTS), 1678 (Summary of Project)]. It counts as functional.
In test [11] the test system is Streptococcus. The test can be described thus: Group A Streptococcus viability loss, dose response, counter-screen for streptokinase expression inhibitor project, luminescence, BacTiterGlo (AID 1915).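 Also: potency for reduction of bacterial viability or growth.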 It counts as functional, organism-based.
The target of test [12] is T2, Streptokinase A (Streptococcus pyogenes serotype M1, UniProt P10520).
T2 sequence (P10520 whole entry): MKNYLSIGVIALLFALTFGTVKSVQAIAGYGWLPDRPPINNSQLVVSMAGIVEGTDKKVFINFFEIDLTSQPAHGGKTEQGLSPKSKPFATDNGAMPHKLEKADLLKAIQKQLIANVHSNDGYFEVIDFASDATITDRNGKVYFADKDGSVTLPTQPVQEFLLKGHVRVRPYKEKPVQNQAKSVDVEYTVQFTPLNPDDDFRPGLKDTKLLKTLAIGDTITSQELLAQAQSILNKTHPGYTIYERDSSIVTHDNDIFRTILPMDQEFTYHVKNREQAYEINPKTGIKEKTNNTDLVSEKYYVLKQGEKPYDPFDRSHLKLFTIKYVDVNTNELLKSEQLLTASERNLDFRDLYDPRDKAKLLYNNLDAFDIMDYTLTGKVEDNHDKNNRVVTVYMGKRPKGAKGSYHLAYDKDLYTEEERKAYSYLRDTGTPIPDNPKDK
As to the kind of experiment: S. pyogenes streptokinase expression inhibitors, potency, dose response, plasminogen activation absorbance, OD405 (AID 1914).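 Also: secreted streptokinase activity via plasminogen activation per viability signal from cell pellet.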 It is filed as functional, Streptococcus pyogenes M1 GAS.

For test [13], the system named is Streptococcus sp. 'group A'. The test can be described thus: growth inhibition of control SK(-) GAS strain, dose response, counter-screen for streptokinase expression inhibitor project, luminescence, kanamycin, BacTiterGlo, confirmation (AID 1900). It counts as functional, organism-based.

The EC50 is the midpoint of the concentration-response curve. For orientation: AC50 means the midpoint of the concentration-response curve, whichever way the signal moves. In general, CC50 refers to the concentration at which the toxic effect on the cells reaches its halfway point.

Calls of active or inactive are those of the source. Rule as the data show it, for most assays here: actives have a measured EC50 and inactives only a lower limit.

Luciferin 4-monooxygenase, sequence (P08659 whole entry): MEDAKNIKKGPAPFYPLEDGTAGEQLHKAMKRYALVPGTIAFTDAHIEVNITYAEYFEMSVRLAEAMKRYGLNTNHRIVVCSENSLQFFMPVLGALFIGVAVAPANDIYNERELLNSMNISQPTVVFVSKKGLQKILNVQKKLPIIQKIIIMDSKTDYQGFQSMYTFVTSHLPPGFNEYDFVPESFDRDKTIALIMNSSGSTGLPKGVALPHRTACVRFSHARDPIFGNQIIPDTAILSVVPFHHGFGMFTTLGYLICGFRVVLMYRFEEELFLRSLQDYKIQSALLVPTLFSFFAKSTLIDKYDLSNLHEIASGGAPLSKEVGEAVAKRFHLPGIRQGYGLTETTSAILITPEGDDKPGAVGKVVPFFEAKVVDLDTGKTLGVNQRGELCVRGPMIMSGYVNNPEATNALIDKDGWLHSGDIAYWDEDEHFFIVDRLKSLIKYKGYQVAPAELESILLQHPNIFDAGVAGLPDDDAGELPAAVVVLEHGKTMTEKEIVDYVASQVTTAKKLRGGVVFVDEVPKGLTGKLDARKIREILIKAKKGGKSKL

In the case of `Cc1ccc(NNC(=O)c2cccs2)cc1Cl`, the EC50 in [1] was > 260 µM (inactive); in test [3], 1.62 µM (active); in test [4], 29.6 µM (active). For the same compound, in test [2], the AC50 was 1.96 µM (active).

For `Cc1cc(-c2ccc(NC(=O)[C@@H]3CCCC[C@@H]3C(=O)O)c(C)c2)ccc1NC(=O)[C@@H]1CCCC[C@@H]1C(=O)O`, the CC50 in test [5] was 17.9 µM (active).

For `CCc1nnc(NC(=O)Cn2ccc(C(F)(F)F)n2)s1`, the EC50 is > 38 µM (not active) in test [3] and > 150 µM (inactive) in [4].

For the compound `CC1(C)CC(N/C=C2/C(=O)N(Cc3ccc4c(c3)OCO4)C(=O)c3ccccc32)CC(C)(C)N1`, the results for the EC50 in [3] and in [4] were 5.68 µM (active) and > 160 µM (inactive), respectively.

With `COc1cc(C(=O)OCc2cc(=O)c(O)co2)ccc1OC(F)F`, the EC50 in [3] was > 38 µM (not active); in test [4] it was > 160 µM (inactive).

As to `COc1ccccc1-c1cc(C(=O)N2CCN(c3ccccc3)CC2)no1`, the CC50 in test [5] is 31.9 µM (active).

As for `O=C(C1CCC(CNS(=O)(=O)c2cccs2)CC1)N1CCN(c2ccc(Cl)cc2)CC1` (centres undefined), the AC50 in test [6] was 16 µM (active); in test [7], 2.76 µM (active); in test [8], 1.61 µM (active).

As for `Cc1ccc(S(=O)(=O)N2CCCC2C(=O)O)cc1` (centres undefined), the EC50 in [9] and in test [10] was > 112 µM (not active) throughout.

Take `Cc1nc(SCC(=O)NCC2CCCO2)c2cc(-c3ccccc3)sc2n1` (centres undefined): the CC50 in [5] was 20.3 µM (active).

`Cc1ccsc1C(=O)Nc1nc2ccccc2[nH]1`: the EC50 in [9] was 2.67 µM (active); in [10], 4.71 µM (active).

`COc1ccc(-c2nn(-c3ccccc3)cc2C(=O)O)cc1`: the EC50 in test [9] and in test [10] was > 112 µM (not active) throughout.

Turning to `Cc1ccc(NC(=O)c2sccc2C)nc1`, the figures for the EC50 in [9] and in test [10] were 13.9 µM (active) and 5.98 µM (active), respectively.

In the case of `CCCc1cc(O)nc(SCc2csc(-c3ccccc3)n2)n1`, the EC50 in test [3] was 2.81 µM (active); in test [4], > 160 µM (inactive).

Consider `Cc1nc2cc(NC(=O)Nc3cccc(F)c3)ccc2n1C`, for which the EC50 in test [9] is 5.89 µM (active); in test [10] it was 7.45 µM (active).

Turning to `Cc1cc(-c2cc(C(=O)O)c3ccccc3n2)c(C)s1`, the EC50 in test [3] was 3.94 µM (active); in test [4], > 160 µM (inactive).

On to `CNc1ccc(OC)cc1-n1cnc(-c2ccc([N+](=O)[O-])cc2)c1`, for which the EC50 in test [3] is > 38 µM (not active); in test [4], > 150 µM (inactive).

In the case of `Clc1cccc(-c2nn3c(Cn4cnc5ccccc54)nnc3s2)c1`, in test [5], the CC50 is > 50 µM (active).

Regarding `Cc1ccccc1N=C(S)c1ccc2ccccc2n1`, the EC50 in test [9] and in test [10] was > 112 µM (not active) each time.

Consider `CCOC(=O)C1=C(c2ccccc2)N=C(S)NC1c1cc([N+](=O)[O-])ccc1OC` (centres undefined), for which the cytotoxic concentration (CC50) in [5] was > 50 µM (active).

For the compound `N#C/C(=C(/O)c1ccco1)c1nc2ccccc2[nH]1`, the EC50 in test [3] is 4.11 µM (active); in test [4], > 150 µM (inactive).

For the compound `Cc1ccc(Cn2ccc(=O)c(OCc3c(Cl)cccc3Cl)c2C)cc1`, the AC50 in [6] was 6.57 µM (active); in [7], 60.6 µM (active); in test [8] it was 6.11 µM (active). The EC50 in [11] was > 150 µM (not active); in test [12], 13.7 µM (active); in test [13], 6.66 µM (active).

In the case of `CCc1ccc2oc(-c3cc(N)ccc3Cl)nc2c1`, in test [5], the CC50 was 41.3 µM (active).

Turning to `Clc1ccc(-c2cs/c(=N\c3cccnc3)n2CCCn2ccnc2)cc1Cl`, in test [5], the CC50 was 15.4 µM (active).

For the compound `Cc1ccccc1/C=N/NC1=NC(=O)CCS1`, the CC50 in [5] was 26.4 µM (active).

For `Nc1ncnc2c1ncn2[C@@H]1O[C@H](CO)C[C@H]1O` [CORDYCEPIN], the EC50 in test [3] was 4.1 µM (active); in test [4], > 150 µM (inconclusive).
